Test results taken from patent publication US5336687A, “Inhibition of bone loss by 4-aryloxy-5-hydroxy-2(5H)-furanones” (American Home Products Corporation, priority 1993, dated 1994).
Converted amounts (≈) assume the structure as drawn.

Assays:
Rat Limb Bone = test: 45Ca Release from Rat Limb Bone (inhibition of bone resorption); type: cell-based, rat (Sprague-Dawley CD); settings: for minimal effective concentration: concentration required to inhibit bone resorption, from regression analysis, read-out: MIC, Inhibition of Bone Resorption (45Ca release)
Method: Timed pregnant Sprague-Dawley CD rats (Charles River) are administered 100 uCi^45 CaCl2 (NEN calcium-45 NEZ-013) in 100 μl of 0.9% saline, subcutaneously, on day 18 of gestation. The rats are sacrificed the following day by asphyxiation. […] The modified BGJb media is obtained without salts glucose or bicarbonate and is supplemented before use with 0.1 mM MgCl2, 1.25 mM CaCl2, 5.3 mM KCl, 0.7 mM MgSO4, 130 mM NaCl, 1.0 mM NaH2 PO4, 1 g/1 glucose, 50 mg/1 Na acetate and 100 U/ml penicillin G. The medium is sterilized by passage through a […] filter (Nalge). Under a dissecting microscope, the bones are gently cleaned of adherent tissue and the cartilagenous ends removed. Step (2): Incubation and Drug Treatment The midshafts are placed, individually, on 3×3 mm squares of filter paper (Gelman […] filters; […] pore size) which rest on stainless steel screens in wells of 24-well culture plates containing 0.5 ml of preincubation medium. The preincubation medium is brought to 37 deg. C. prior to transfer of bones. The preincubation medium consists of the modified BGJb medium (with salts and glucose as above), pH 7.3, containing 29 mM NaHCO3. After incubation for 18-24 hours at 37° C. in 5% CO2, the bones are transferred on their screen/filter paper supports to new plates containing, in a total volume of 0.5 ml/well at 37° C., the test compound diluted in preincubation medium supplemented with 15% heat inactivated horse serum (Gibco No. 230-6050), pH 7.3, with or without a bone resorption stimulating agent (parathyroid hormone [PTH]). For compounds that require nonaqueous solvents, dilutions are made from the appropriate stock solution with medium. In these instances, basal and bone resorption stimulated controls exposed to an equivalent concentration of the vehicle are included. An additional group of bones that have been subjected to boiling for 1 hour are used to establish background, non cell mediated, exchange of ^45 Ca. The right ulna and radius from each fetus are used. Both bones are subjected to the same treatment and each treatment group consists of bones from 4 or more fetuses. Treatments are randomly assigned using a preclinical statistics program (PS-ALLOC). After a 48 hour incubation at 37° C. in 5% CO2, the bones are removed from the medium and extracted in 0.5 ml of 0.1N HCl for 1 or more days. Duplicate 150 μl aliquots of the incubation medium and the bone extract are analyzed for ^45 Ca radioactivity in 5 ml of liquid scintillation cocktail. The percentage of bone ^45 Ca released into the medium is determined as follows: [formula] Results are normally expressed as the ratio of the percent ^45 Ca release of the experimental group verses the appropriate vehicle control. […] A regression analysis is calculated for dose response and the concentration of test compound required to inhibit bone resorption (^45 Ca release) is reported (Table II).

[1] = cited from earlier work
Rat Femur = test: Immobilization Dependent Bone Loss in the Rat Femur (ovariectomized rats, unilateral sciatic neurotomy); type: in vivo; settings: 20 mg/kg, i.p., 5×/week for 4 weeks
Method: This assay was performed according to the procedure described by Kharode Y.P., Kowal D., O'Rourke S., and Hayward M., "Effect of Time and Pharmacologic Intervention on Bone Mineralization," J. Bone Min. Res. 2, Supp.1. (1987).
Bone mass was determined in the contralateral femora from ovariectomized rats which had been subjected to unilateral sciatic nerve severance. After sciatic neurotomy, the rats were treated with test compound for 2 to 4 weeks. The rats were euthanized, the femora were excised, debrided of soft tissue, and then dehydrated. After drying, the mass of each pair of femora was determined by weighing. The % change in bone mass is calculated using the formula: [formula]

[2] = Rattus norvegicus, 48 hour incubation at 37° C.

Molecule: CCCCCCCCc1ccc(OC2=CC(=O)OC2O)cc1 (stereo not drawn) [Example 3, 4-(4-Octylphenoxy)-5-hydroxy-2(5H)-furanone]
- minimal effective concentration (Rat Limb Bone; [2]): 10 µg/mL

Molecule: [F-].[Na+] [sodium fluoride]
- bone growth quality ([1]; in vivo): irregular
- fracture incidence ([1]; in vivo): does not appear to be significantly lowered
- mitogenic activity for osteoblasts ([1]; in vivo): mitogenic for osteoblasts
- bone density increase ([1]; may result in increase up to 8-10% a year): 8-10 % a year

Molecule: O=C1C=C(Oc2ccc(C(F)(F)F)cc2)C(O)O1 (stereo not drawn) [Example 5, 4-(4-Trifluoromethylphenoxy)-5-hydroxy-2(5H)-furanone]
- IC50 (Rat Limb Bone; Rattus norvegicus, 48 hour incubation at 37° C., printed in the MIC (μg/mL) column): 3.5 µg/mL (≈ 13.5 µM)

Molecule: O=C1C=C(Oc2ccc(Sc3ccccc3)cc2)C(O)O1 (stereo not drawn) [Example 7, 4-[4-thiophenyl-1-phenoxy]-5-hydroxy-2(5H)-furanone]
- minimal effective concentration (Rat Limb Bone; [2]): 10 µg/mL

Molecule: Estrogen
- side effects ([1]; in vivo): increased risk of certain types of cancers

Molecule: O=C1C=C(Oc2ccc(-c3ccccc3)cc2)C(O)O1 (stereo not drawn) [Example 1, 4-([1,1'-Biphenyl]-4-yloxy)-5-hydroxy-2(5H)-furanone]
- % Change in Bone Mass (Rat Femur): 4.8 ± 0.6%
- minimal effective concentration (Rat Limb Bone; [2]): 10 µg/mL

Molecule: O=C1C=C(Oc2ccc(C3CCCC3)cc2)C(O)O1 (stereo not drawn) [Example 4, 4-(4-Cyclopentylphenoxy)-5-hydroxy-2(5H)-furanone]
- minimal effective concentration (Rat Limb Bone; [2]): 1 µg/mL

B1: PTH: bone resorption stimulating agent (parathyroid hormone [PTH]) (protein, UniProt P01270 32-115, looked up)
Parathyroid hormone: SVSEIQLMHNLGKHLNSMERVEWLRKKLQDVHNFVALGAPLAPRDAGSQRPRKKEDNVLVESHEKSLGEADKADVNVLTKAKSQ
- ratio of the percent 45Ca release vs vehicle control (basal = 1.00) (Rat Limb Bone; PTH 10^-7 M, bone resorption agent, 'commonly'): 1.3-2.0
